Results from PMC7316778 (Nature Communications, 2020).
Read-outs that look alike come from different tables or passages of the source.

Columns and labels:
Assay in all cases: SelectScreen kinase assay
[1] = target: NEK1 (Homo sapiens, UniProt Q96PY6)
Procedure: (§1) Selectivity profiling assays were performed by the Invitrogen SelectScreen™ Services. […] The concentration of ATP was selected to be equal to the KM, unless indicated otherwise.

[2] = target: MAPK10 (JNK3) (Homo sapiens, UniProt P53779)
Procedure: as §1

[3] = target: T1, PRKD2 (PKD2) (Homo sapiens, UniProt Q9BZL6); details: for Inhibition at 1 µM (%): ZLYTE, ATP Km app
T1 sequence (Q9BZL6 1-878): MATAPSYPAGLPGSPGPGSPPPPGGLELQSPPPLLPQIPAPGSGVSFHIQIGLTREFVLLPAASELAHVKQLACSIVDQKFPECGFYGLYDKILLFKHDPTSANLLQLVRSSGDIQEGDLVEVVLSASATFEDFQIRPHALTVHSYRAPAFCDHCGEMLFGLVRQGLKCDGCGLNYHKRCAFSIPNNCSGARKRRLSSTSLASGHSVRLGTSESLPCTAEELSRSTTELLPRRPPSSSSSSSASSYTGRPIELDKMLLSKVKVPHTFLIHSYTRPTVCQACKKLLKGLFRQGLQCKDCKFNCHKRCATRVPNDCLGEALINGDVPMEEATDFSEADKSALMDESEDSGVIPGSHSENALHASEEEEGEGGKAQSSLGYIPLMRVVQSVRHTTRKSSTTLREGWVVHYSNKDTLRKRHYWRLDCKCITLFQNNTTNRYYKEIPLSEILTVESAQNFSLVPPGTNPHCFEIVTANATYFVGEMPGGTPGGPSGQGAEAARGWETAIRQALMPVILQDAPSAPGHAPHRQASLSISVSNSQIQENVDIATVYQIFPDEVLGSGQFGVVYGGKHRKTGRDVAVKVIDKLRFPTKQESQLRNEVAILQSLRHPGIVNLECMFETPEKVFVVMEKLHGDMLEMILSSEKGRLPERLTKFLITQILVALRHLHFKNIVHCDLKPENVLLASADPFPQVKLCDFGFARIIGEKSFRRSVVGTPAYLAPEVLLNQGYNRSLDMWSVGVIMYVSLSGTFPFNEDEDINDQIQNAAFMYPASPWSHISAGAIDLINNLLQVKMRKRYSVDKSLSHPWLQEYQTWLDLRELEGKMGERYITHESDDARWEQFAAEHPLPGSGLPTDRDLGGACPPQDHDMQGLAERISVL
Procedure: as §1

[4] = target: LIMK1 (Homo sapiens, UniProt P53667)
Sequence of LIMK1 (P53667 whole entry): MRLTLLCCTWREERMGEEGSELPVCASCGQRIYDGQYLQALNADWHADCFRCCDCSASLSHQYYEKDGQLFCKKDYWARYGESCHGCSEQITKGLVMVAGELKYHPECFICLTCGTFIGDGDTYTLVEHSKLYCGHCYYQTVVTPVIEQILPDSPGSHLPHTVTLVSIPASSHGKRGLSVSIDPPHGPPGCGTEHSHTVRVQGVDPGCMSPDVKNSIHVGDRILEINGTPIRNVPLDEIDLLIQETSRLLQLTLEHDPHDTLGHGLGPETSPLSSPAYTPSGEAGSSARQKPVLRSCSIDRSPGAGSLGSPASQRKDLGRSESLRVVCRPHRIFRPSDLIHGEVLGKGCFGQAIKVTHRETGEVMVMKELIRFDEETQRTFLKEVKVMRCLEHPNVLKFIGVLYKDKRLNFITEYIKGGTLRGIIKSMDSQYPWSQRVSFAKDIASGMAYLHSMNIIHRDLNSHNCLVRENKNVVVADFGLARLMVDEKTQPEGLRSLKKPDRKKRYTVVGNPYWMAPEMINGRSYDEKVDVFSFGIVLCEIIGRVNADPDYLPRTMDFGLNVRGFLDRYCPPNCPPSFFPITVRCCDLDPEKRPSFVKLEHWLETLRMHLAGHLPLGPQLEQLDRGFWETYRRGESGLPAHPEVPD
Procedure: as §1

[5] = target: AMPK A2/B1/G1 (Homo sapiens, UniProt P54646)
Sequence of AMPK A2/B1/G1 (P54646 whole entry): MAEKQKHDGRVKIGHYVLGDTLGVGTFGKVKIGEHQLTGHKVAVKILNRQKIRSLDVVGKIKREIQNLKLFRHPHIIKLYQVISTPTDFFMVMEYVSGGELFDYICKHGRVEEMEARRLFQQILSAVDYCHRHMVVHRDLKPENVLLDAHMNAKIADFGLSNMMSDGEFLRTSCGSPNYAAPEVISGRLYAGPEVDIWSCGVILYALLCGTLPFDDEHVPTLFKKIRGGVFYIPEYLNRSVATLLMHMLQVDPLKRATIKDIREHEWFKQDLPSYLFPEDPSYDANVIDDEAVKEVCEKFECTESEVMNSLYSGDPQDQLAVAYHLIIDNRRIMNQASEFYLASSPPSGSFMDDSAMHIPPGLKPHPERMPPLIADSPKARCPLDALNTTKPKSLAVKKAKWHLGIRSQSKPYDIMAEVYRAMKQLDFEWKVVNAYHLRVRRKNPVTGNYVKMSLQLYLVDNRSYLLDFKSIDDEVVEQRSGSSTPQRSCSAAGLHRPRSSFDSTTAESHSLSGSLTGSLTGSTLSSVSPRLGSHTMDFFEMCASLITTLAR
Sequence of AMPK A2/B1/G1 (Q9Y478 whole entry partner): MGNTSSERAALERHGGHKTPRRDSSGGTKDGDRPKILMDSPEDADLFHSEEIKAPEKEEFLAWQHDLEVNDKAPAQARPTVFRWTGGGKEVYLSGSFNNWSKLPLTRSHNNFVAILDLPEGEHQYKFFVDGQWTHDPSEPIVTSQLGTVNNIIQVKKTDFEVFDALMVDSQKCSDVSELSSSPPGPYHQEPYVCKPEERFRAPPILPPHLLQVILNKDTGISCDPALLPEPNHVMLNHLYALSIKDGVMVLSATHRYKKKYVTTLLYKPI
Sequence of AMPK A2/B1/G1 (P54619 whole entry partner): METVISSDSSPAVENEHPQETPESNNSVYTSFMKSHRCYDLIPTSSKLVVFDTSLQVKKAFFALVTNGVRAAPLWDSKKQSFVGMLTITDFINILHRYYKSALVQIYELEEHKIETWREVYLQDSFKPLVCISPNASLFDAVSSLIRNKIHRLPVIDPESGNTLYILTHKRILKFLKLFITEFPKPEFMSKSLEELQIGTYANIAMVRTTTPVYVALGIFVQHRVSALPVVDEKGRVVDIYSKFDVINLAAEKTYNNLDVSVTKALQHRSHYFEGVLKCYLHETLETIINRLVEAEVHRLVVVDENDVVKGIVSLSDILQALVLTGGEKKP
Procedure: as §1

[6] = target: T2, TYRO3 (RSE) (Homo sapiens, UniProt Q06418)
T2 sequence (Q06418 41-890): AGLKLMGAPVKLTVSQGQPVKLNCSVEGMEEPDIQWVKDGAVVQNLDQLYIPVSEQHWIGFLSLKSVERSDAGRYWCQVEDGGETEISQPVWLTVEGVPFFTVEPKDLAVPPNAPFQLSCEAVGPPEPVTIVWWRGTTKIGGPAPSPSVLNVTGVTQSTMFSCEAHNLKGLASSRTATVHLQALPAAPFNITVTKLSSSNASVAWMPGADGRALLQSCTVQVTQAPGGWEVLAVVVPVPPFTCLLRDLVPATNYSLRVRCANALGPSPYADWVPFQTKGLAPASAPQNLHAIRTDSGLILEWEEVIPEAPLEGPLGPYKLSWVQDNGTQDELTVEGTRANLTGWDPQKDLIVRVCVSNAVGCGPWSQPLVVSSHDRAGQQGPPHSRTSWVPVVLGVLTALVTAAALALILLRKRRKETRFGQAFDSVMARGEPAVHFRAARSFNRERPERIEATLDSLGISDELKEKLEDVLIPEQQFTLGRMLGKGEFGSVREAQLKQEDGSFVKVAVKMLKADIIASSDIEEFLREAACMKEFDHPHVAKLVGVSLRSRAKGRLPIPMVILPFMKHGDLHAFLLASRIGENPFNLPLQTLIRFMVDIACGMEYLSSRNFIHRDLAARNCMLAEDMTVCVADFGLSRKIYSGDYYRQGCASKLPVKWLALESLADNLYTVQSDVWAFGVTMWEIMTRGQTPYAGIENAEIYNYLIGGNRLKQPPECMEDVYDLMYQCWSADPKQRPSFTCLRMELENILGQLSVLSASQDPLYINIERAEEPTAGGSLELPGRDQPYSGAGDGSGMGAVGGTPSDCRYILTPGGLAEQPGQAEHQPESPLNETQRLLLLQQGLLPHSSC
Procedure: as §1

[7] = target: CHEK2 (CHK2) (Homo sapiens, UniProt O96017)
Sequence of CHEK2 (CHK2) (O96017 whole entry): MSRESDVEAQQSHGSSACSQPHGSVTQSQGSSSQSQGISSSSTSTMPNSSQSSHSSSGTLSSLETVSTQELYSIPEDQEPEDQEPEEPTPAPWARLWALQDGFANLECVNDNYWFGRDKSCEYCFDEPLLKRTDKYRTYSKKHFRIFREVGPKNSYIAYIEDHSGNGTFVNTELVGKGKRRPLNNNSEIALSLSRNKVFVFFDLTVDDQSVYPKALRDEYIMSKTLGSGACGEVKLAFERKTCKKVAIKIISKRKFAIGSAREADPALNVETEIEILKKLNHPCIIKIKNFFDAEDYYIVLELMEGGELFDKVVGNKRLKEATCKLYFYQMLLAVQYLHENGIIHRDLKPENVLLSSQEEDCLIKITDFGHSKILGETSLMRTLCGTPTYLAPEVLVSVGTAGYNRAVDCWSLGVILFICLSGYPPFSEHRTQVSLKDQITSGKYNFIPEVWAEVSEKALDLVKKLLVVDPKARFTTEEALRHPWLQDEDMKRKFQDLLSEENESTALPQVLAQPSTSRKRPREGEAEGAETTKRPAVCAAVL
Procedure: as §1

[8] = target: PRKACG (PRKAC gamma) (Homo sapiens, UniProt P22612); details: for Inhibition at 1 µM (%): PRKACG (PRKAC gamma), LanthaScreen Binding
Sequence of PRKACG (PRKAC gamma) (P22612 whole entry): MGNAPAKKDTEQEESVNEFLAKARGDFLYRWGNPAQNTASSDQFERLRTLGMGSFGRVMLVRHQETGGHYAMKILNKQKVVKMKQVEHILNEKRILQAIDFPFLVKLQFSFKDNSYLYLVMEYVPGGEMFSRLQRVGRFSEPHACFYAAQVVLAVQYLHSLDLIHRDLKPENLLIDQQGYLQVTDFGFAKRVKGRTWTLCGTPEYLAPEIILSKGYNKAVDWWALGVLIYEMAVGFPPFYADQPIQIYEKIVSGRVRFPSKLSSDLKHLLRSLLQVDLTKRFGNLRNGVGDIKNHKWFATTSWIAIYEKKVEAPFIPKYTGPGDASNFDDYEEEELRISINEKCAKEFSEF
Procedure: as §1

[9] = 1 h, 1 μM WEL028, 1 h preincubation

Sequence of MAPK10 (JNK3) (P53779 whole entry): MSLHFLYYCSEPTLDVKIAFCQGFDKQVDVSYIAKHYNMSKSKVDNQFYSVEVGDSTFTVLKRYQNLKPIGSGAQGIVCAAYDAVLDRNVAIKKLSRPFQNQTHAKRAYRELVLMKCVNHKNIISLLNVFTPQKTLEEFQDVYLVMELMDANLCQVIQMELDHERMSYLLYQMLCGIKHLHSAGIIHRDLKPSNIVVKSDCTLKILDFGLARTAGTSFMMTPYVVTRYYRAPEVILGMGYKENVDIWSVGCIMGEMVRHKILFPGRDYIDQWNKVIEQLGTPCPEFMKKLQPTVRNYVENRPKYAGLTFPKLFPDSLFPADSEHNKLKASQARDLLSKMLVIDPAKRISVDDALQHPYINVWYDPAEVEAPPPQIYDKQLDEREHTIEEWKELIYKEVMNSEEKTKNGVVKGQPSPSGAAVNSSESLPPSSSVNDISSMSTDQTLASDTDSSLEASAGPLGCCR
Sequence of NEK1 (Q96PY6 whole entry): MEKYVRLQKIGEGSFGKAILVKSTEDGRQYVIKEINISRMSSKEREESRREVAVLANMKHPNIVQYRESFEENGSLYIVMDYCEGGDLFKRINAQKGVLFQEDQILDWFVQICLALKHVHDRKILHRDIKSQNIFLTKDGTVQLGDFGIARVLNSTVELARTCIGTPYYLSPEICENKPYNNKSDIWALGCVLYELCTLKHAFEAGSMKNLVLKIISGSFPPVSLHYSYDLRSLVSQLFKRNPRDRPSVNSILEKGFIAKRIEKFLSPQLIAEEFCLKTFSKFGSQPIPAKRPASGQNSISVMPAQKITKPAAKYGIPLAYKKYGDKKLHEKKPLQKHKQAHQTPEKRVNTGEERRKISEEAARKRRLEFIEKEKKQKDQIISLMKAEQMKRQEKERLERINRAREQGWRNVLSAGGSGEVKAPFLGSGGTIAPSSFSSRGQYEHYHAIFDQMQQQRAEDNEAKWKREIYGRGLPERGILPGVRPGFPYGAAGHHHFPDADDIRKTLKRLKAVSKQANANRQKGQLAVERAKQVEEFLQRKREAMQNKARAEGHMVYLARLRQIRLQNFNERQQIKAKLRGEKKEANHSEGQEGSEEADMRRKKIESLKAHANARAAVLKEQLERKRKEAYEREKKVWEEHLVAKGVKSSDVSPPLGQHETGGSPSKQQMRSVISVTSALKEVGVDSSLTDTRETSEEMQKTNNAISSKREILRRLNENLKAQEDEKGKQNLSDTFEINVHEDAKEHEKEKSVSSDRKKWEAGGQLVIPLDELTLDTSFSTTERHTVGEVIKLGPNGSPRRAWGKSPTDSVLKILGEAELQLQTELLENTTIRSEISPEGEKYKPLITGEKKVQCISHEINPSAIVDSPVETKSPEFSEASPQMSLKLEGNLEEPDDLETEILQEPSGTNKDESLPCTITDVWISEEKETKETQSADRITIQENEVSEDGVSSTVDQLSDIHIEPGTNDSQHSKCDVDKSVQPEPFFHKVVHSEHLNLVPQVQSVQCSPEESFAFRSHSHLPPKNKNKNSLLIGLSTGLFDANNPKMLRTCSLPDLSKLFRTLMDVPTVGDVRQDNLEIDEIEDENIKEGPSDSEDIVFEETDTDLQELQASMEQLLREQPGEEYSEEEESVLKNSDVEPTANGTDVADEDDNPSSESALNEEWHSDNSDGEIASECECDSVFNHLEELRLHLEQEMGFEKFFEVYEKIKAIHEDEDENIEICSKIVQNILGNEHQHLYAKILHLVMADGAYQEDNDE

## C#CCOc1ccc(Nc2ncc(Cl)c(Nc3ccccc3NC(=O)C=C)n2)c(OC)c1 [Compound 6]
[1]; [9]
  inhibition at 1 µM: 6%
[1]; NEK1, 1 µM, ZLYTE, ATP Km app
  Inhibition at 1 µM (%): 12%
[2]; 1 μM WEL028, 1 h preincubation
  Inhibition (%): -7%
[2]; MAPK10 (JNK3), 1 µM, ZLYTE, ATP 100
  Inhibition at 1 µM (%): -14%
[3]
  Inhibition at 1 µM (%): 2%
[3]; listed as WEL028, 1 µM
  Inhibition at 1 µM (%): 5%
[3]; [9]
  inhibition at 1 µM: 3%
[4]; [9]
  inhibition at 1 µM: 14%
[4]; LIMK1, 1 µM, LanthaScreen Binding, listed as WEL028, 1 µM
  Inhibition at 1 µM (%): 12%
[4]; read-out: Inhibition at 1 µM (%), LIMK1, 1 µM, LanthaScreen Binding
  inhibition at 1 µM: 16%
[5]; [9]
  inhibition at 1 µM: 4%
[5]; AMPK A2/B1/G1, 1 µM, ZLYTE, ATP Km app
  Inhibition at 1 µM (%): -2%
[6]; 1 µM, ZLYTE, ATP Km app, listed as WEL028, 1 µM
  Inhibition at 1 µM (%): 6%
[6]; [9]
  inhibition at 1 µM: 5%
[6]; read-out: Inhibition at 1 µM (%), 1 µM, ZLYTE, ATP Km app
  inhibition at 1 µM: 4%
[7]; [9]
  inhibition at 1 µM: 4%
[7]; CHEK2 (CHK2), 1 µM, ZLYTE, ATP Km app
  Inhibition at 1 µM (%): 14%
[8]; [9]
  inhibition at 1 µM: 3%
[8]
  Inhibition at 1 µM (%): 2%
[8]; listed as WEL028, 1 µM
  Inhibition at 1 µM (%): 5%
